# Measured values published in publication PMC11784145, “Efficacy and in vitro pharmacological assessment of novel N-hydroxypyridinediones as hepatitis B virus ribonuclease H inhibitors” (Antimicrobial Agents and Chemotherapy, 2024).
# Legend:
# [1] = test system: HBV replication (HBV plus-polarity DNA strand); assay: HBV replication inhibition, strand preferential qPCR in hepDES19 cells; type: cell-based, hepatitis B virus; conditions: for EC50: 72 h exposure, HBV plus-polarity strand suppression, highest concentration tested 100 µM, mean ± SD, read-out: HepDES19 EC50
# Protocol: HBV replication inhibition was measured in hepDES19 cells following 72 h compound exposure without compound replenishment. EC50 values were determined by HBV plus-polarity strand suppression using a strand preferential qPCR assay, as described previously ([28]). Three or more replicate values were obtained on different days.
# [2] = Solubility limit, turbidimetric assay; type: physicochemical; conditions: upper limit 200 µM
# Protocol: Solubility limits were determined by a turbidimetric assay, as described ([27]), with the solubility limit being defined as the compound concentration where light scattering began to rise. Two or more replicate assays were performed for each compound at each pH on different days.
# [3] = Parallel artificial membrane permeability assay (PAMPA); type: in vitro ADME
# Protocol: Compound Papp values were determined by normalizing the experimental compound absorbance to the compounds’ absorbances at equilibrium, membrane porosity, buffer volume, and time (s). Two or more replicate assays were obtained on separate days for each pH.
# CYP2D6 = target: T1, CYP2D6 (Homo sapiens, UniProt P10635); assay: Cytochrome P450 inhibition, Vivid 2D6 EOMCC Blue kit; type: in vitro ADME; conditions: dose-response 50 µM to 3 nM; mean ± SD
# T1 construct: purchased Thermo Fisher Vivid 2D6 EOMCC Blue
# Protocol: (§1) Compound inhibition of Cytochrome P (CYP) 3A4, 2C9, and 2D6 was determined using Vivid CYP450 screening kits (Thermo Fisher) according to the manufacturer’s instructions, as described previously ([27]). The kits employed were: Vivid 3A4 DBOMF Green, 2C9 BOMF Green, and 2D6 EOMCC Blue. Reactions were initiated by addition of the fluorophore-conjugated substrates with Vivid NADP^+ and were conducted at 37°C using either a Biotek Synergy HTX multi-mode plate reader with 485/20 nm excitation and 520/20 nm emission filters (green-fluorescent substrate), or a Tecan Spark plate reader with monochromator settings at 415/20 nm excitation and 460/20 nm emission (blue-fluorescent substrate) defined by the Center Wavelength/band-pass values. Substrate cleavage was detected every 60 s.
# (§2) Compounds were initially screened against each enzyme at 10 µM and maximum rates of fluorescence in RFU were calculated using the Biotek Gen5 v3.11 software. Percent inhibition of experimental compound reactions was normalized to the rate to DMSO vehicle reactions. Positive controls used were: CYP3A4—ketoconazole (Sigma Aldrich), CYP2C9—sulfaphenazole (Cayman Chemical), and CYP2D6—quinidine (Fisher Scientific). Dose-response curves were generated for compounds that inhibited an enzyme by ≥50% using titrated concentrations of compound (50 µM to 3 nM) or 1% DMSO. IC50 values were determined using the four-parameter log[inhibitor] versus response algorithm in GraphPad Prism. Qualitative screens and dose-response curves were each performed in triplicate on different days.
# HepDES19 cells = conditions: read-out: HepDES19 CC50; 72 h, MTS; highest concentration tested 100 µM; mean ± SD
# plasma proteins = assay: Plasma protein binding, rapid equilibrium dialysis; type: in vitro ADME, bovine; conditions: 10 µM compound, DMEM-F12 with 10% FBS (0.25 mg/mL BSA), 4 h, 37°C
# Protocol: Plasma protein binding was performed using the Pierce rapid equilibrium dialysis device (Thermo Fisher) per the manufacturer’s instructions, as described ([27]). Briefly, the sample wells contained DMEM-F12 supplemented with 10% FBS spiked with 10 µM compound, and the buffer wells contained phosphate-buffered saline (PBS). The plate was incubated for 4 h at 37°C with shaking, after which 50 µL was retrieved from the buffer and sample wells and added to ice-cold acetonitrile and the internal standard described above. Samples were matrix-matched with PBS supplemented with 10% FBS or PBS alone, respectively, and centrifuged at 4,000 × g for 5 min to pellet plasma proteins. The supernatants were analyzed by LCMS/MS and percent compound bound was determined, as described previously ([27]).
# CYP3A4 = target: T2, CYP3A4 (Homo sapiens, UniProt P08684); assay: Cytochrome P450 inhibition, Vivid 3A4 DBOMF Green kit; type: in vitro ADME; conditions: 10 µM compound
# T2 construct: purchased Thermo Fisher Vivid 3A4 DBOMF Green
# Protocol: as §1
# as §2, with “Dose-response curves were generated for compounds that inhibited an enzyme by ≥50% using titrated concentrations of compound (50 µM to 3 nM) or 1% DMSO.” left out, “Qualitative screens and dose-response curves were each performed in triplicate on different days.” left out
# Microsome stability = type: in vitro ADME, human; conditions: human, microsomes
# Protocol: Human liver microsomes (gender pooled, 50 individuals) were purchased from BioIVT and stored at −80°C until use. […] Reactions were initiated by addition of 1.2 mM NADPH. […] Microsomal proteins were pelleted at 4,000 × g and the supernatant was analyzed via LCMS/MS. […] The ln percent remaining values were plotted against time, the negative slope was taken (k), and compound half-life (t1/2) was determined using ln2/k. Intrinsic clearance (Clint [µL/min/mg]) was calculated by (V × ln2)/t1/2, where V is the incubation volume (µL) divided by the protein concentration in the reaction (mg) ([31]).
# [4] = pH 5 (fed simulated intestinal fluid)
# [5] = pH 6.5 (fasted simulated intestinal fluid)
# T1 sequence (P10635 whole entry): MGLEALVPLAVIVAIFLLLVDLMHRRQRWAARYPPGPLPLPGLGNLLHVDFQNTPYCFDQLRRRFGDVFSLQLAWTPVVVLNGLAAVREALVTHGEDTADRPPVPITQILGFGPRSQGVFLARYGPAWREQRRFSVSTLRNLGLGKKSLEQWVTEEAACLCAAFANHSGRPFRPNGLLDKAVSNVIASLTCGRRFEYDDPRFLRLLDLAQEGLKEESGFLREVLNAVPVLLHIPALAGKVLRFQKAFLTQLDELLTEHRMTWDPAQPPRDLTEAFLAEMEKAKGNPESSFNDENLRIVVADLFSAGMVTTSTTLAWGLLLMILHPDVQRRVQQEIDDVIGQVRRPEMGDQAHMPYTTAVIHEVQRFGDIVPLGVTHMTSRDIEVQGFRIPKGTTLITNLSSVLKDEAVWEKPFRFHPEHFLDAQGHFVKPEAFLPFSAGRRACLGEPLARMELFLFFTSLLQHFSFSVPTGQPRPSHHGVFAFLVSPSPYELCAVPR
# T2 sequence (P08684 whole entry): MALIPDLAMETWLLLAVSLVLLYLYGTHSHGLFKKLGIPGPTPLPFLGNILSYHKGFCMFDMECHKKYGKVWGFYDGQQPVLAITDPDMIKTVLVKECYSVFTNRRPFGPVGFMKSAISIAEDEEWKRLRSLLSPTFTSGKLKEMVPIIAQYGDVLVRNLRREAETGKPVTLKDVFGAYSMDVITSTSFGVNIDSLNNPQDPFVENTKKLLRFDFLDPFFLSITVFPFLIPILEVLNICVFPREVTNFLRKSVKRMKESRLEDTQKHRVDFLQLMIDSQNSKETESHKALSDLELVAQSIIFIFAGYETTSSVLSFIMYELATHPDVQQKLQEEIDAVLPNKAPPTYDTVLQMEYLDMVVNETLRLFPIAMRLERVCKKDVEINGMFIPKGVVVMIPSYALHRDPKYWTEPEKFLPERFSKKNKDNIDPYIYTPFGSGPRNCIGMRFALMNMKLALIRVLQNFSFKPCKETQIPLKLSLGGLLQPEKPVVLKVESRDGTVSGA
Structure (SMILES),HepDES19 SI (CC50/EC50) [1],EC50 [1] [µM],"Average Sol (solubility limit) [2, 4] [µM]","Sol 1 (solubility limit) ([2]; pH 5, replicate 1) [µM]","Sol 2 (solubility limit) ([2]; pH 5, replicate 2) [µM]","Average Sol (solubility limit) [2, 5] [µM]","Sol 1 (solubility limit) ([2]; pH 6.5, replicate 1) [µM]","Sol 2 (solubility limit) ([2]; pH 6.5, replicate 2) [µM]",Average Sol (solubility limit) ([2]; pH 7.4 (DMEM-F12 with 10% FBS)) [µM],"Sol 1 (solubility limit) ([2]; pH 7.4, replicate 1) [µM]","Sol 2 (solubility limit) ([2]; pH 7.4, replicate 2) [µM]",Avg Papp (PAMPA) ([3]; FeSSIF pH 5) [×10⁻⁶ cm/s],Interpretation (PAMPA Papp) ([3]; FeSSIF pH 5),"Papp 1 (PAMPA) ([3]; FeSSIF pH 5, replicate 1) [×10⁻⁶ cm/s]","Papp 2 (PAMPA) ([3]; FeSSIF pH 5, replicate 2) [×10⁻⁶ cm/s]",Avg Papp (PAMPA) ([3]; pH 7.4) [×10⁻⁶ cm/s],Interpretation (PAMPA Papp) ([3]; pH 7.4),"Papp 1 (PAMPA) ([3]; pH 7.4, replicate 1) [×10⁻⁶ cm/s]","Papp 2 (PAMPA) ([3]; pH 7.4, replicate 2) [×10⁻⁶ cm/s]",CC50 (HepDES19 cells) [µM],also measured
CC(=NOCc1cccc(Cl)c1)c1c(C)cc(=O)n(O)c1O [Compound 1719],34.5,1.35 ± 1.03,150,100,> 200,> 200,> 200,> 200,> 200,> 200,> 200,72.6,H (H: Papp > 1*10-6),48.6,78.8,2.9,H (H: Papp > 1*10-6),2.82,2.99,56.9 ± 31.1,"Papp 3 (PAMPA) ([3]; FeSSIF pH 5, replicate 3): 90.3 ×10⁻⁶ cm/s; IC50 (CYP2D6): 11.2 ± 3.79 µM"
CC(=NOCc1cccc(Br)c1)c1c(C)cc(=O)n(O)c1O [Compound 1621],192,0.52 ± 0.33,> 200,> 200,> 200,> 200,> 200,> 200,> 200,> 200,> 200,26.3,H (H: Papp > 1*10-6),31.7,20.9,4.53,H (H: Papp > 1*10-6),0.49,4.47,78.5 ± 32.4,"Papp 3 (PAMPA) ([3]; pH 7.4, replicate 3): 10.6 ×10⁻⁶ cm/s; Papp 4 (PAMPA) ([3]; pH 7.4, replicate 4): 0.488 ×10⁻⁶ cm/s; Papp 5 (PAMPA) ([3]; pH 7.4, replicate 5): 6.7 ×10⁻⁶ cm/s; Papp 6 (PAMPA) ([3]; pH 7.4, replicate 6): 4.44 ×10⁻⁶ cm/s; IC50 (CYP2D6): 19.5 µM"
"Nc1ccn([C@@H]2CS[C@H](CO)O2)c(=O)n1 [Lamivudine, lamivudine, reference compound]",–,–,–,–,–,–,–,–,–,–,–,–,–,–,–,–,–,–,–,–,Percent bound (plasma proteins): 9.70 ± 11.3%; Percent bound (plasma proteins; listed as lamivudine): 10%
CC(=NOCc1ccc(OCc2ccc(C(C)(C)C)cc2)cc1)c1c(C)cc(=O)n(O)c1O [Compound 1808],6.24,6 ± 0.17,> 200,> 200,> 200,> 200,> 200,> 200,100,100,100,–,H (H: Papp > 1*10-6),32.2,9.19,2.97,H (H: Papp > 1*10-6),3.7,2.6,38.2 ± 10.2,"Papp 3 (PAMPA) ([3]; FeSSIF pH 5, replicate 3): 81.4 ×10⁻⁶ cm/s; Papp 4 (PAMPA) ([3]; FeSSIF pH 5, replicate 4): 95.8 ×10⁻⁶ cm/s; Papp 3 (PAMPA) ([3]; pH 7.4, replicate 3): 2.6 ×10⁻⁶ cm/s; Percent inhibition of CYP3A4 (CYP3A4): ~ 42%; Clearance (intrinsic clearance, Clint) (Microsome stability): 10.1 µL/min/mg; Half-life (Microsome stability): >30 min"
